Test results as given in US9850283B2, “Macrocyclic inhibitors of the PD-1/PD-L1 and CD80(B7-1)/PD-L1 protein/protein interactions” (BRISTOL-MYERS SQUIBB COMPANY, priority 2013, dated 2017).
Read-outs that look alike come from different tables or passages of the source. Positions of bridges follow the written chain, without caps; N, C: chain ends. Non-standard residues stand in square brackets, D forms with d. Residues, ends and D or L forms follow the SMILES beside them. ξ: configuration not given here. *: point of attachment. Ala(indol-4-yl) = N[C@@H](Cc1cccc2[nH]ccc12)C(=O)O; Phe(3-OMe) = COc1cccc(C[C@H](N)C(=O)O)c1; Phe(4-F) = N[C@@H](Cc1ccc(F)cc1)C(=O)O; 1Nal = N[C@@H](Cc1cccc2ccccc12)C(=O)O; Bta = N[C@@H](Cc1csc2ccccc12)C(=O)O; Cyclobutanecarbonyl = O=C(C1CCC1)*; Hyp = O=C(O)[C@@H]1C[C@@H](O)CN1; NMeF = CN[C@@H](Cc1ccccc1)C(=O)O; NMeNle = CCCC[C@H](NC)C(=O)O; NMeS = CN[C@@H](CO)C(=O)O; NMeA = CN[C@@H](C)C(=O)O; Orn = NCCC[C@H](N)C(=O)O; Dab = NCC[C@H](N)C(=O)O; Dap = NC[C@H](N)C(=O)O; Bn = c1ccc(C*)cc1; ξC = NC(CS)C(=O)O; Sar = CNCC(=O)O

Assays:
[1] = molecular target: T1, LK35.2-hPD-L1 cells / PE-labeled PD-1-Ig (Homo sapiens, UniProt Q9NZQ7); experiment: LK35.2-hPD-L1 cell binding high-content screening assay; format: cell-based; conditions: cluster symbol, read-out: CBA IC50 cluster
T1 construct: expressed in transfected cells; host or cells: LK35.2 mouse B cell line
Procedure, shortened: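 Using overnight-cultured LK35.2-hPD-L1 mouse B cells, compound was co-incubated with phycoerythrin-tagged human PD-1-Ig (final 1 nM) at 37 °C for one hour. Unbound label was removed by triple dPBS washing prior to high-content image acquisition and analysis.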

Human PD-L1/PD-1 = molecular target: T2, Human PD-L1/PD-1 (Homo sapiens, UniProt Q9NZQ7); experiment: HTRF PD-1-Ig/PD-L1-His binding assay (human PD-L1); conditions: cluster symbol; read-out: HTRF IC50 cluster
T2 construct: made in house; host or cells: HEK293T
Procedure, shortened: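 The time-resolved fluorescence signal comes from Eu-cryptate anti-Ig (1 nM) and APC anti-His (20 nM) antibodies bound to a PD-1-Ig/PD-L1-His complex. Both partners lack transmembrane regions.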

[2] = cell line of CBA not given (LK35.2-hPD-L1 or 293T-hPD-L1)
[3] = cell binding assay, cell line not given

T1 sequence (Q9NZQ7 19-290): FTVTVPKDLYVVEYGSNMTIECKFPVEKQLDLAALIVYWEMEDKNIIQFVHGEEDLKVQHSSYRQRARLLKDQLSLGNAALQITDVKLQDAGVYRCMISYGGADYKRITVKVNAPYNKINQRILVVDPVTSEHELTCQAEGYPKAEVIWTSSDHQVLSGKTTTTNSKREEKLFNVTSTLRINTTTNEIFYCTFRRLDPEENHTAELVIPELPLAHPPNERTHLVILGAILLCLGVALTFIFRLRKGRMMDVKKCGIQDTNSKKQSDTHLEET
T2 sequence (Q9NZQ7 with tags, fused parts or gaps): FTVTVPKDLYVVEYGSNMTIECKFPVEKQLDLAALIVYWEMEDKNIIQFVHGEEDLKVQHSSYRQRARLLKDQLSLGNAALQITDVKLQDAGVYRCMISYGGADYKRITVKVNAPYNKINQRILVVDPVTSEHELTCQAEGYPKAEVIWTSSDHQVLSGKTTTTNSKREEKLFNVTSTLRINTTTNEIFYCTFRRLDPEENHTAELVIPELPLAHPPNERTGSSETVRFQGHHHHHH

Compound | IC50 [1, 2] | IC50 (Human PD-L1/PD-1) | IC50 [1, 3]
CCCC[C@H]1C(=O)N(C)CC(=O)N[C@@H](CC(=O)O)C(=O)N[C@@H](C(C)C)C(=O)N(C)[C@@H](Cc2ccccc2)C(=O)N[C@@H](Cc2ccc(O)cc2)C(=O)N(C)CC(=O)N[C@@H](Cc2c[nH]c3ccccc23)C(=O)N[C@@H](Cc2ccc(O)cc2)C(=O)N[C@@H](CC(C)C)C(=O)N[C@H](C(=O)NCC(N)=O)CSCC(=O)N[C@@H](Cc2cccc(OC)c2)C(=O)N(C)[C@@H](Cc2ccccc2)C(=O)N1C [Example 3095] ({CH2CO}-[Phe(3-OMe)][NMeF][NMeNle][Sar]DV[NMeF]Y[Sar]WYLCG-NH2; thioether N-13) | 4.78 to 72.9 nM | 6.76 to 30.3 nM | –
CCCC[C@H]1C(=O)N[C@@H](CCCNC(=N)N)C(=O)NC(C(=O)NCC(N)=O)CSCC(=O)N[C@@H](Cc2ccc(O)cc2)C(=O)N(C)[C@@H](C)C(=O)N[C@@H](CC(N)=O)C(=O)N2CCC[C@H]2C(=O)N[C@@H](Cc2cnc[nH]2)C(=O)N[C@@H](CC(C)C)C(=O)N2C[C@H](O)C[C@H]2C(=O)N[C@@H](Cc2c[nH]c3ccccc23)C(=O)N[C@@H](CO)C(=O)N[C@@H](Cc2csc3ccccc23)C(=O)N(C)[C@@H](C)C(=O)N1C (stereo partly shown) [Example 9056] ({CH2CO}-Y[NMeA]NPHL[Hyp]WS[Bta][NMeA][NMeNle]R[ξC]G-NH2; thioether N-14) | – | 0.385 to 6.74 nM | 0.158 to 4.71 nM
CCCC[C@H]1C(=O)N(C)[C@@H](CCCC)C(=O)N[C@@H](CCN)C(=O)N[C@H](C(=O)NCC(N)=O)CSCC(=O)N[C@@H](Cc2ccc(O)cc2)C(=O)N(C)[C@@H](C)C(=O)N[C@@H](CCN)C(=O)N2CCC[C@H]2C(=O)N[C@@H](CN)C(=O)N[C@@H](CC(C)C)C(=O)N2C[C@H](O)C[C@H]2C(=O)N[C@@H](Cc2c[nH]c3ccccc23)C(=O)N[C@@H](CCN)C(=O)N[C@@H](Cc2c[nH]c3ccccc23)C(=O)N1C [Example 5140] ({CH2CO}-Y[NMeA][Dab]P[Dap]L[Hyp]W[Dab]W[NMeNle][NMeNle][Dab]CG-NH2; thioether N-14) | – | 6.76 to 30.3 nM | 4.78 to 72.9 nM
CCCC[C@H]1C(=O)N(C)[C@@H](CCCC)C(=O)N[C@@H](CCC(=O)O)C(=O)N[C@H](C(=O)NCC(N)=O)CSCC(=O)N[C@@H](Cc2ccc(O)cc2)C(=O)N(C)[C@@H](C)C(=O)N[C@@H](CC(N)=O)C(=O)N2CCC[C@H]2C(=O)N[C@@H](Cc2c[nH]cn2)C(=O)N[C@@H](CCCCN)C(=O)N2C[C@H](O)C[C@H]2C(=O)N[C@@H](Cc2c[nH]c3ccccc23)C(=O)N[C@@H](CCCCN)C(=O)N[C@@H](Cc2c[nH]c3ccccc23)C(=O)N1C [Example 5100] ({CH2CO}-Y[NMeA]NPHK[Hyp]WKW[NMeNle][NMeNle]ECG-NH2; thioether N-14) | – | 6.76 to 30.3 nM | 0.158 to 4.71 nM
CCCC[C@H]1C(=O)N(C)CC(=O)N[C@@H](CC(=O)O)C(=O)N[C@@H](C(C)C)C(=O)N(C)[C@@H](Cc2ccccc2)C(=O)N[C@@H](Cc2ccc(O)cc2)C(=O)N(C)CC(=O)N[C@@H](Cc2cccc3[nH]ccc23)C(=O)N[C@@H](Cc2ccc(O)cc2)C(=O)N[C@@H](CC(C)C)C(=O)N[C@H](C(=O)NCC(N)=O)CSCC(=O)N[C@@H](Cc2ccccc2)C(=O)N(C)[C@@H](Cc2ccccc2)C(=O)N1C [Example 3071] ({CH2CO}-F[NMeF][NMeNle][Sar]DV[NMeF]Y[Sar][Ala(indol-4-yl)]YLCG-NH2; thioether N-13) | 4.78 to 72.9 nM | 6.76 to 30.3 nM | –
CC(C)C[C@@H]1NC(=O)[C@H](Cc2cnc[nH]2)NC(=O)[C@@H]2CCCN2C(=O)[C@H](CC(N)=O)NC(=O)[C@H](C)N(C)C(=O)[C@H](Cc2ccccc2)NC(=O)CSC[C@@H](C(=O)NCC(N)=O)NC(=O)[C@H](CCCNC(=N)N)NC(=O)[C@H](C)N(C)C(=O)[C@H](COCc2ccccc2)N(C)C(=O)[C@H](Cc2c[nH]c3ccccc23)NC(=O)[C@H](CO)NC(=O)[C@H](Cc2c[nH]c3ccccc23)NC(=O)CN(C)C1=O [Example 6012] ({CH2CO}-F[NMeA]NPHL[Sar]WSW[NMeS](Bn)[NMeA]RCG-NH2; thioether N-14) | – | 6.76 to 30.3 nM | 4.78 to 72.9 nM
CCCC[C@H]1C(=O)N(C)[C@@H](COCC)C(=O)N[C@@H](CCCNC(=N)N)C(=O)NC(C(=O)NCC(N)=O)CSCC(=O)N[C@@H](Cc2ccc(O)cc2)C(=O)N(C)[C@@H](C)C(=O)N[C@@H](CC(N)=O)C(=O)N2CCC[C@H]2C(=O)N[C@@H](Cc2cnc[nH]2)C(=O)N[C@@H](CC(C)C)C(=O)N2CCC[C@H]2C(=O)N[C@@H](Cc2c[nH]c3ccccc23)C(=O)N[C@@H](CO)C(=O)N[C@@H](Cc2csc3ccccc23)C(=O)N1C (stereo partly shown) [Example 9040] ({CH2CO}-Y[NMeA]NPHLPWS[Bta][NMeNle][NMeS](Et)R[ξC]G-NH2; thioether N-14) | – | 0.385 to 6.74 nM | 0.158 to 4.71 nM
CCCC[C@H]1C(=O)N(C)[C@@H](CCCC)C(=O)N[C@@H](CCCNC(=N)N)C(=O)N[C@H](C(=O)NCC(N)=O)CSCC(=O)N[C@@H](Cc2ccc(O)cc2)C(=O)N(C)[C@@H](C)C(=O)N[C@@H](CC(N)=O)C(=O)N2CCC[C@H]2C(=O)N[C@@H](CN)C(=O)N[C@@H](CC(C)C)C(=O)N2CCC[C@H]2C(=O)N[C@@H](Cc2c[nH]c3ccccc23)C(=O)N[C@@H](CO)C(=O)N[C@@H](Cc2csc3ccccc23)C(=O)N1C [Example 1084] ({CH2CO}-Y[NMeA]NP[Dap]LPWS[Bta][NMeNle][NMeNle]RCG-NH2; thioether N-14) | 0.158 to 4.71 nM | 0.385 to 6.74 nM | –
CCCC[C@H]1C(=O)N(C)CC(=O)N[C@@H](CC(=O)O)C(=O)N[C@@H](C(C)C)C(=O)N(C)[C@@H](Cc2ccccc2)C(=O)N[C@@H](Cc2ccc(O)cc2)C(=O)N(C)CC(=O)N[C@@H](Cc2c[nH]c3ccccc23)C(=O)N[C@@H](Cc2ccc(F)cc2)C(=O)N[C@@H](CC(C)C)C(=O)N[C@H](C(=O)NCC(N)=O)CSCC(=O)N[C@@H](Cc2ccccc2)C(=O)N(C)[C@@H](Cc2ccccc2)C(=O)N1C [Example 3076] ({CH2CO}-F[NMeF][NMeNle][Sar]DV[NMeF]Y[Sar]W[Phe(4-F)]LCG-NH2; thioether N-13) | 4.78 to 72.9 nM | 0.385 to 6.74 nM | –
CCCC[C@H]1C(=O)N(C)[C@@H](CCCC)C(=O)N[C@@H](CCCNC(=N)N)C(=O)N[C@@H](C(=O)NCC(N)=O)CSCC(=O)N[C@@H](Cc2ccccc2)C(=O)N(C)[C@@H](C)C(=O)N[C@@H](CC(N)=O)C(=O)N2CCC[C@H]2C(=O)N[C@@H](Cc2cnc[nH]2)C(=O)N[C@@H](CC(C)C)C(=O)N(C)CC(=O)N[C@@H](Cc2c[nH]c3ccccc23)C(=O)N[C@@H](CO)C(=O)N[C@@H](Cc2cccc3ccccc23)C(=O)N1C [Example 1002] ({CH2CO}-F[NMeA]NPHL[Sar]WS[1Nal][NMeNle][NMeNle]R[dC]G-NH2; thioether N-14) | 4.78 to 72.9 nM | 6.76 to 30.3 nM | –
CCCC[C@H]1C(=O)N(C)[C@@H](CCCC)C(=O)NCC(=O)N[C@H](C(=O)NCC(N)=O)CSCC(=O)N[C@@H](Cc2ccccc2)C(=O)N(C)[C@@H](C)C(=O)N[C@@H](CC(N)=O)C(=O)N2CCC[C@H]2C(=O)N[C@@H](Cc2cnc[nH]2)C(=O)N[C@@H](CC(C)C)C(=O)N(C)CC(=O)N[C@@H](Cc2c[nH]c3ccccc23)C(=O)N[C@@H](CO)C(=O)N[C@@H](Cc2c[nH]c3ccccc23)C(=O)N1C [Example 5015] ({CH2CO}-F[NMeA]NPHL[Sar]WSW[NMeNle][NMeNle]GCG-NH2; thioether N-14) | – | 6.76 to 30.3 nM | 4.78 to 72.9 nM
CC(C)C[C@@H]1NC(=O)[C@H](Cc2cnc[nH]2)NC(=O)[C@@H]2CCCN2C(=O)[C@H](CC(N)=O)NC(=O)[C@H](C)N(C)C(=O)[C@H](Cc2ccccc2)NC(=O)CSC[C@@H](C(=O)NCC(N)=O)NC(=O)[C@H](CCCNC(=N)N)NC(=O)[C@H](C)N(C)C(=O)[C@H](CCNC(=O)C2CCC2)NC(=O)[C@H](Cc2c[nH]c3ccccc23)NC(=O)[C@H](CO)NC(=O)[C@H](Cc2c[nH]c3ccccc23)NC(=O)CN(C)C1=O [Example 1034] ({CH2CO}-F[NMeA]NPHL[Sar]WSW[Dab](Cyclobutanecarbonyl)[NMeA]RCG-NH2; thioether N-14) | > 74.3 nM | > 30.5 nM | –
CCCC[C@H]1C(=O)N(C)[C@@H](CCCC)C(=O)N[C@@H](CCCNC(=N)N)C(=O)N[C@H](C(=O)NCC(N)=O)CSCC(=O)N[C@@H](Cc2ccccc2)C(=O)N(C)[C@@H](C)C(=O)N[C@@H](CC(N)=O)C(=O)N2CCC[C@H]2C(=O)N[C@@H](CCCN)C(=O)N[C@@H](CC(C)C)C(=O)N(C)CC(=O)N[C@@H](Cc2c[nH]c3ccccc23)C(=O)N[C@@H](CO)C(=O)N[C@@H](Cc2c[nH]c3ccccc23)C(=O)N1C [Example 1059] ({CH2CO}-F[NMeA]NP[Orn]L[Sar]WSW[NMeNle][NMeNle]RCG-NH2; thioether N-14) | > 74.3 nM | > 30.5 nM | –
CCCC[C@H]1C(=O)N2CCC[C@H]2C(=O)N[C@@H](CC(=O)O)C(=O)N[C@@H](C(C)C)C(=O)N(C)[C@@H](Cc2ccccc2)C(=O)N[C@@H](Cc2ccc(O)cc2)C(=O)N2CCC[C@H]2C(=O)N[C@@H](Cc2c[nH]c3ccccc23)C(=O)N[C@@H](Cc2ccc(O)cc2)C(=O)N[C@@H](CC(C)C)C(=O)N[C@H](C(=O)NCC(N)=O)CSCC(=O)N[C@@H](Cc2ccccc2)C(=O)N(C)[C@@H](Cc2ccccc2)C(=O)N1C [Example 3070] (HELM PEPTIDE1{[O=C(C[*:3])[*:2]].F.[meF].[CCCC[C@@H](C(=O)[*:2])N(C)[*:1]].P.D.V.[meF].Y.P.W.Y.L.C.G.[am]}$PEPTIDE1,PEPTIDE1,1:R3-14:R3$$$V2.0) | > 74.3 nM | > 30.5 nM | –
